Experiments:
[1] = Metabolic stability in rat liver microsomes assessed as parent compound remaining at 0.5 uM incubated for 10 mins in presence of NADPH by LC-MS/MS analysis; type: ADME, Microsome; details: read-out: Stability
[2] = Metabolic stability in human liver microsomes assessed as parent compound remaining at 0.5 uM incubated for 10 mins in presence of NADPH by LC-MS/MS analysis; type: ADME, Microsome; details: read-out: Stability
[3] = molecular target: T1, AP2-associated protein kinase 1 (Homo sapiens, UniProt Q2M2I8); experiment: Inhibition of full length human AAK1 expressed in HEK293F incubated for 3 hrs by Western blot analysis; type: cell-based
[4] = Metabolic stability in mouse liver microsomes assessed as parent compound remaining at 0.5 uM incubated for 10 mins in presence of NADPH by LC-MS/MS analysis; type: ADME, Microsome; details: read-out: Stability
[5] = Plasma protein binding in human assessed as unbound fraction at 10 uM incubated for 5 hrs by rapid equlibrium dialysis based LC-MS/MS method
[6] = Plasma protein binding in rat assessed as unbound fraction at 10 uM incubated for 5 hrs by rapid equlibrium dialysis based LC-MS/MS method
[7] = Plasma protein binding in mouse assessed as unbound fraction at 10 uM incubated for 5 hrs by rapid equlibrium dialysis based LC-MS/MS method
[8] = Permeability of the compound at pH 7.4 by PAMPA; type: ADME; details: read-out: permeability
[9] = Permeability of the compound at pH 5.5 by PAMPA; type: ADME; details: read-out: permeability
[10] = Permeability across apical to basolateral side in human Caco-2 cells incubated for 2 hrs by LC-MS/MS analysis
[11] = Permeability across basolateral to apical side in human Caco-2 cells incubated for 2 hrs by LC-MS/MS analysis; type: ADME, cell-based; details: for Papp B→A at 2 h: Caco-2, read-out: permeability
[12] = Ratio of drug concentration in brain to plasma in C57BL6 mouse at 30 mg/kg, sc; type: ADME, organism-based; details: read-out: BPR
[13] = Plasma concentration in C57BL6 mouse at 30 mg/kg, sc by LC-MS/MS analysis; type: ADME, organism-based; details: in vivo
[14] = Brain concentration in C57BL6 mouse at 30 mg/kg, sc by LC-MS analysis; type: ADME, organism-based; details: in vivo, read-out: Ct
[15] = Unbound brain to plasma concentration ratio in C57BL6 mouse at 30 mg/kg, sc; type: ADME, organism-based; details: read-out: K(p,uu,brain)
[16] = molecular target: T1, AP2-associated protein kinase 1
[17] = molecular target: BMP-2-inducible protein kinase (Homo sapiens, UniProt Q9NSY1); experiment: Inhibition of BIKE (unknown origin)
[18] = molecular target: T2, Serine/threonine-protein kinase Chk1 (Homo sapiens, UniProt O14757); experiment: Inhibition of CHK1 (unknown origin)
T2 sequence (O14757 whole entry): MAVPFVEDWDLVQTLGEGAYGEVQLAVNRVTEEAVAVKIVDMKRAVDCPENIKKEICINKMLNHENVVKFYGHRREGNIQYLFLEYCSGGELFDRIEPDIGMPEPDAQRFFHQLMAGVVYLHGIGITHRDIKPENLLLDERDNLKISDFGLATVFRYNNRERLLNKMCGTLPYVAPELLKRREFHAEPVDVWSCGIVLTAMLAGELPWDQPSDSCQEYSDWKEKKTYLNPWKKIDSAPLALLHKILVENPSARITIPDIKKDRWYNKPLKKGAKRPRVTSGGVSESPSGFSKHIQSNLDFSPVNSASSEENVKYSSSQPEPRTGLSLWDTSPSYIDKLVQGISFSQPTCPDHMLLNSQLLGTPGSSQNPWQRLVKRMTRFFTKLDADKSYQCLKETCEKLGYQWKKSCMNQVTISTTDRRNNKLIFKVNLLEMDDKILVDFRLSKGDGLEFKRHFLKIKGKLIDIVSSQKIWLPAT

[19] = molecular target: Glycogen synthase kinase-3 beta (Homo sapiens, UniProt P49841); experiment: Inhibition of GSK3beta (unknown origin)
[20] = molecular target: MAP kinase-interacting serine/threonine-protein kinase 1 (Homo sapiens, UniProt Q9BUB5); experiment: Inhibition of MNK1 (unknown origin)
[21] = molecular target: T3, Cyclin-G-associated kinase (Homo sapiens, UniProt O14976); experiment: Inhibition of GAK (unknown origin)
T3 sequence (O14976 whole entry): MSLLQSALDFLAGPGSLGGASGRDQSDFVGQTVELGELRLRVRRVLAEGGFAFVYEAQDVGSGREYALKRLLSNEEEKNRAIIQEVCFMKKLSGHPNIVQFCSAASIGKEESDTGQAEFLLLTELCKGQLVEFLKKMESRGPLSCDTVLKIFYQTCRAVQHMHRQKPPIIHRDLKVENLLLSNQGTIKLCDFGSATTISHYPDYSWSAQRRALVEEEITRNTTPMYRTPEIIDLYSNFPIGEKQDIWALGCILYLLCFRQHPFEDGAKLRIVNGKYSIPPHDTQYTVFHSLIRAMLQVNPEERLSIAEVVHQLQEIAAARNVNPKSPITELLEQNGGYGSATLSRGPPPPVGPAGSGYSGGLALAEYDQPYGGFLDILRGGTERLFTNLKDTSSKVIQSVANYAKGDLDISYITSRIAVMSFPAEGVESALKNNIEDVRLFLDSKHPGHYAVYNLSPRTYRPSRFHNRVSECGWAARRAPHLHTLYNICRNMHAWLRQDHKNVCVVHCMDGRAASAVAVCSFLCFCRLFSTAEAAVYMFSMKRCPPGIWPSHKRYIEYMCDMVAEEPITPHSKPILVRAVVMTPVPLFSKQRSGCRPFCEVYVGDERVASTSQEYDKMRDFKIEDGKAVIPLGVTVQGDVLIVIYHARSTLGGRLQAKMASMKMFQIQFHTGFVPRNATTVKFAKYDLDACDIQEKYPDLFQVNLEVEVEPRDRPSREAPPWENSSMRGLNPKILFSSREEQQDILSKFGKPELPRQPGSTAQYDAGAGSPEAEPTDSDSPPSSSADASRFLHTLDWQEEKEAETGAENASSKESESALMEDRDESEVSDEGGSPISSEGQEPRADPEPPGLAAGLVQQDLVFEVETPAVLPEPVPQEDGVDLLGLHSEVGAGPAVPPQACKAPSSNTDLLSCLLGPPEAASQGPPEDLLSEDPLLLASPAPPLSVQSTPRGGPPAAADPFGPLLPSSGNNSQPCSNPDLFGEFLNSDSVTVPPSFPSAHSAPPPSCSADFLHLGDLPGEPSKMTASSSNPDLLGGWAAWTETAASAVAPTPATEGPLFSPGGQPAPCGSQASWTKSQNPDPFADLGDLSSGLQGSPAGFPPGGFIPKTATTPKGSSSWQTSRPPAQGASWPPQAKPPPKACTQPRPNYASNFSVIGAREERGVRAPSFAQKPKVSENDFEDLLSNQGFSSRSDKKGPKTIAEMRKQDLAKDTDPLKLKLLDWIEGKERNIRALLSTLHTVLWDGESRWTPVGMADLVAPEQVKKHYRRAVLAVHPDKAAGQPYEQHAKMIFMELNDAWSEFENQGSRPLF

[22] = molecular target: Serine/threonine-protein kinase 16 (Homo sapiens, UniProt O75716); experiment: Inhibition of MPSK1 (unknown origin)
[23] = Plasma concentration in C57BL6 mouse at 60 mg/kg, sc by LC-MS/MS analysis; type: ADME, organism-based; details: in vivo
[24] = Brain concentration in C57BL6 mouse at 60 mg/kg, sc by LC-MS analysis; type: ADME, organism-based; details: in vivo, read-out: Ct
[25] = Ratio of drug concentration in brain to plasma in C57BL6 mouse at 60 mg/kg, sc; type: ADME, organism-based; details: read-out: BPR
[26] = Unbound brain to plasma concentration ratio in C57BL6 mouse at 60 mg/kg, sc; type: ADME, organism-based; details: read-out: K(p,uu,brain)

T1 sequence (Q2M2I8 whole entry): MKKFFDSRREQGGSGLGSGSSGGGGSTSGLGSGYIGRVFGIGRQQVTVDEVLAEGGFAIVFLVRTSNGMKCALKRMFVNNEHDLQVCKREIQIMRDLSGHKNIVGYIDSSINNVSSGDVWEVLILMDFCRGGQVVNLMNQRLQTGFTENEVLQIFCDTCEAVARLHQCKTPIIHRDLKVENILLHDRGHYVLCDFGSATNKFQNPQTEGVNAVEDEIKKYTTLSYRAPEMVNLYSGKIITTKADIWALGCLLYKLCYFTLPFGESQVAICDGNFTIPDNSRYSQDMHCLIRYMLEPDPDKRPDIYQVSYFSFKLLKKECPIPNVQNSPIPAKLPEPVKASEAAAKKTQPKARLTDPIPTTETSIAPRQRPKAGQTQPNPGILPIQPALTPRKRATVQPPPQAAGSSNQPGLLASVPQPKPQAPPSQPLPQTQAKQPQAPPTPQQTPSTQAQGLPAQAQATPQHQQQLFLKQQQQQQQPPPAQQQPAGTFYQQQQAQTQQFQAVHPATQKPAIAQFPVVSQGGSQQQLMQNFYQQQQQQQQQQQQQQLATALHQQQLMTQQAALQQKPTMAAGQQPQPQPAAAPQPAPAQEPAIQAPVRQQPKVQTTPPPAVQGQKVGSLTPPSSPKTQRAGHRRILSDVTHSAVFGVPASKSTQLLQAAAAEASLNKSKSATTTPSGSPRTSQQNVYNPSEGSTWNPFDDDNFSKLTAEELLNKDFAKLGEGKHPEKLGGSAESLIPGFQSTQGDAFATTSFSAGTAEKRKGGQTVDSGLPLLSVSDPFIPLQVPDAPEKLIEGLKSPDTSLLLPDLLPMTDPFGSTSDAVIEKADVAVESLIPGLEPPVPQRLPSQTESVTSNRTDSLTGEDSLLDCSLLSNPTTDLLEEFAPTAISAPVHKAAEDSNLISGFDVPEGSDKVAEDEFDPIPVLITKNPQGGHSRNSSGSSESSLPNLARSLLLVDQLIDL
Chain of BMP-2-inducible protein kinase (Q9NSY1 whole entry): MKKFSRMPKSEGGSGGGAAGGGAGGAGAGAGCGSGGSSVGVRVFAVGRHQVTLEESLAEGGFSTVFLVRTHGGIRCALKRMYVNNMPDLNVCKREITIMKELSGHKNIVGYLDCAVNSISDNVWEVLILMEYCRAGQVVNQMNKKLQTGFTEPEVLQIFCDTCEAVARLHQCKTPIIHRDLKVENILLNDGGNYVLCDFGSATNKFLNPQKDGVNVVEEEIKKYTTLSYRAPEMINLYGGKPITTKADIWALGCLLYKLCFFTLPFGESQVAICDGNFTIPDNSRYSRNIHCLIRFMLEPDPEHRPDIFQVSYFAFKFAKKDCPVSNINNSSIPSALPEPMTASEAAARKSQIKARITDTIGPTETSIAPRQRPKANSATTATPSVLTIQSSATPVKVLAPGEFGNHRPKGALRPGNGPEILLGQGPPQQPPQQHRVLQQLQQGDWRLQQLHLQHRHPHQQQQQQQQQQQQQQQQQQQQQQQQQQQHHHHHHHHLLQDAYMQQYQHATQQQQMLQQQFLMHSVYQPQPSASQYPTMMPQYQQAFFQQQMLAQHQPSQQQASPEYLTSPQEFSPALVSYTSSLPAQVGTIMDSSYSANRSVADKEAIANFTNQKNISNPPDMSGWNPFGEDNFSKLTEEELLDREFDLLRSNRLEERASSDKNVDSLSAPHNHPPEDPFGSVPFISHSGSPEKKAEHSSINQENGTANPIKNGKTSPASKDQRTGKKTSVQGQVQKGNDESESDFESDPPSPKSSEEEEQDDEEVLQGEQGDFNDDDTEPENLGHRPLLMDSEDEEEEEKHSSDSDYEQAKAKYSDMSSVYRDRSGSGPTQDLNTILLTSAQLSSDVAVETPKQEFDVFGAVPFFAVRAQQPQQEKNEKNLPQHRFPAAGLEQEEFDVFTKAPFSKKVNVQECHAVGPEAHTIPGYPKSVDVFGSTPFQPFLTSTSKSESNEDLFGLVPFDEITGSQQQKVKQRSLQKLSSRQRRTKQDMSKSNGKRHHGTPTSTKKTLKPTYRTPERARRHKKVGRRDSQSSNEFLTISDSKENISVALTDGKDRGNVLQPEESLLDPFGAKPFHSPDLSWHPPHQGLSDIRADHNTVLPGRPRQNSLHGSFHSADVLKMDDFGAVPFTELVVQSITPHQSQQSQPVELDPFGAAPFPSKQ
Chain of Glycogen synthase kinase-3 beta (P49841 whole entry): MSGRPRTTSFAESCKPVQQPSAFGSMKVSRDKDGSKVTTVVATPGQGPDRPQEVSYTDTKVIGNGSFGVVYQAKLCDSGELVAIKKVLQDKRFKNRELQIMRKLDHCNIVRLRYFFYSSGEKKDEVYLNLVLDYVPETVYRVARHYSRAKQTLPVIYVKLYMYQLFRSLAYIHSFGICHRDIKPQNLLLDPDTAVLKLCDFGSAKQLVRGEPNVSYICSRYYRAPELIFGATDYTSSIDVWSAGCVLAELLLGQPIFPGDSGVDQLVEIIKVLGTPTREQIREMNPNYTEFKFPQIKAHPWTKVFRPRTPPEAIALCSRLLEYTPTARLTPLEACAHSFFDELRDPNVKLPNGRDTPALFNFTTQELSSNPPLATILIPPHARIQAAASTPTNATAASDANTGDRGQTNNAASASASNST
Chain of MAP kinase-interacting serine/threonine-protein kinase 1 (Q9BUB5 whole entry): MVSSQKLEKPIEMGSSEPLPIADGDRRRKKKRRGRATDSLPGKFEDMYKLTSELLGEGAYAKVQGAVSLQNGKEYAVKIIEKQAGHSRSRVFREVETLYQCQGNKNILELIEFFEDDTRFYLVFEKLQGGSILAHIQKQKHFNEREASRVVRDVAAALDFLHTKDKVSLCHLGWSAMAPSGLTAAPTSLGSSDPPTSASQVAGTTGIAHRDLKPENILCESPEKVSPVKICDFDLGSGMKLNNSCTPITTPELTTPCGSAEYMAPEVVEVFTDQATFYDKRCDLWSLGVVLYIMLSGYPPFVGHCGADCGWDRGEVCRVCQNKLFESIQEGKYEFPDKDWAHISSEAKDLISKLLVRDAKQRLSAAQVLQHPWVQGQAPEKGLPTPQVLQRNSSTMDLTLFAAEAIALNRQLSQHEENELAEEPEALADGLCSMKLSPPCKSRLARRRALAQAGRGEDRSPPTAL
Chain of Serine/threonine-protein kinase 16 (O75716 whole entry): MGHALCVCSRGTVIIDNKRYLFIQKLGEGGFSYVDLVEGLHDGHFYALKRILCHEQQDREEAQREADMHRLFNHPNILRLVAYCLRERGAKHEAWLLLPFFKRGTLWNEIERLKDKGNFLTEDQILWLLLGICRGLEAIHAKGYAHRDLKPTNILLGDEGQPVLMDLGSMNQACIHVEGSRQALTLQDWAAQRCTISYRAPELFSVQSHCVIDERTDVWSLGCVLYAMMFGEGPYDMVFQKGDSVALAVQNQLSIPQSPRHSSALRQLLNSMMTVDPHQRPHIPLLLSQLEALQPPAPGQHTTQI

SMILES: CC(C)C[C@@H](N)c1cc(C#N)c2cc(-c3ccncc3)ccc2n1
- remaining at 10 min, 0.5 µM [1]: 43%
- remaining at 10 min, 0.5 µM [2]: 83%
- IC50 [3]: 108 nM
- remaining at 10 min, 0.5 µM [4]: 77%
- fraction unbound at 5 h, 10 µM [5]: 0.18
- fraction unbound at 5 h, 10 µM [6]: 0.045
- fraction unbound at 5 h, 10 µM [7]: 0.13
- Papp [8]: 30.7 ×10⁻⁶ cm/s
- Papp [9]: 40 ×10⁻⁶ cm/s
- Papp A→B at 2 h [10]: 13.5 ×10⁻⁶ cm/s
- Papp B→A at 2 h [11]: 10.3 ×10⁻⁶ cm/s
- Kp [12]: 1.3
- concentration [13]: 23 µM
- concentration [14]: 29 µM
- Kp uu [15]: 0.4
- IC50 [16]: 11 nM

SMILES: CCc1nc(C(N)CC(C)C)nc2ccc(-c3ccncc3)cc12 (centres undefined)
- IC50 [16]: 44 nM

SMILES: CC(C)CC(N)c1ccc2cc(-c3ccncc3)ccc2n1 (centres undefined)
- IC50 [16]: 21 nM

SMILES: CCc1nc(C(N)CC(C)C)nc2cc(OC)c(-c3ccncc3)cc12 (centres undefined)
- IC50 [16]: 420 nM

SMILES: COc1cc2nc(C(N)CC(C)C)nc(C#N)c2cc1-c1cnco1 (centres undefined)
- IC50 [16]: 6.2 nM

SMILES: CC(C)CC(N)c1nc(C#N)c2cc(-c3ccncc3)ccc2n1 (centres undefined)
- IC50 [16]: 16 nM

SMILES: CCc1nc([C@H](N)CC(C)C)nc2ccc(-c3cnco3)cc12
- IC50 [16]: 220 nM

SMILES: COc1cc2nc(C(N)CC(C)C)ncc2cc1-c1cnco1 (centres undefined)
- IC50 [16]: 110 nM

SMILES: CC(C)C[C@H](N)c1cc(C#N)c2cc(-c3ccncc3)ccc2n1
- remaining at 10 min, 0.5 µM [1]: 50%
- remaining at 10 min, 0.5 µM [2]: 72%
- IC50 [3]: 19 nM
- remaining at 10 min, 0.5 µM [4]: 56%
- fraction unbound at 5 h, 10 µM [5]: 0.18
- fraction unbound at 5 h, 10 µM [6]: 0.054
- fraction unbound at 5 h, 10 µM [7]: 0.14
- Papp [8]: 96.9 ×10⁻⁶ cm/s
- Papp [9]: 112 ×10⁻⁶ cm/s
- Papp A→B at 2 h [10]: 11.4 ×10⁻⁶ cm/s
- Papp B→A at 2 h [11]: 4.4 ×10⁻⁶ cm/s
- IC50 [17]: 161 nM
- IC50 [18]: 998 nM
- IC50 [19]: 112 nM
- IC50 [20]: 57 nM
- Kp [12]: 1.5
- concentration [13]: 16 µM
- concentration [14]: 23 µM
- Kp uu [15]: 0.4
- IC50 [21]: > 1000 nM
- IC50 [22]: > 1000 nM
- IC50 [16]: 5.8 nM

SMILES: CCc1nc([C@@H](N)CC(C)C)nc2ccc(-c3cnco3)cc12
- remaining at 10 min, 0.5 µM [1]: 26%
- remaining at 10 min, 0.5 µM [2]: 62%
- IC50 [3]: 49 nM
- remaining at 10 min, 0.5 µM [4]: 56%
- fraction unbound at 5 h, 10 µM [5]: 0.32
- fraction unbound at 5 h, 10 µM [6]: 0.25
- fraction unbound at 5 h, 10 µM [7]: 0.11
- Papp [8]: 90.7 ×10⁻⁶ cm/s
- Papp [9]: 93.5 ×10⁻⁶ cm/s
- Papp A→B at 2 h [10]: 18.4 ×10⁻⁶ cm/s
- Papp B→A at 2 h [11]: 15.6 ×10⁻⁶ cm/s
- IC50 [16]: 30 nM

SMILES: CCc1nc(C(N)CC(C)C)nc2ccc(-c3cnco3)cc12 (centres undefined)
- IC50 [16]: 67 nM

SMILES: CC(C)CC(N)c1cc(C#N)c2cc(-c3ccncc3)ccc2n1 (centres undefined)
- IC50 [16]: 7.3 nM

SMILES: CCc1nc([C@H](N)CC(C)C)nc2cc(OC)c(-c3cnco3)cc12
- IC50 [16]: 95 nM

SMILES: CC(C)CC(N)c1nc2ccc(-c3ccncc3)cc2cc1C#N (centres undefined)
- IC50 [16]: 1800 nM

SMILES: CC(C)C[C@H](N)c1cc(C#N)c2cc(-c3cnco3)ccc2n1
- remaining at 10 min, 0.5 µM [1]: 56%
- remaining at 10 min, 0.5 µM [2]: 76%
- IC50 [3]: 32 nM
- remaining at 10 min, 0.5 µM [4]: 71%
- fraction unbound at 5 h, 10 µM [5]: 0.014
- fraction unbound at 5 h, 10 µM [6]: 0.009
- fraction unbound at 5 h, 10 µM [7]: 0.03
- Papp [8]: 93 ×10⁻⁶ cm/s
- Papp A→B at 2 h [10]: 7.1 ×10⁻⁶ cm/s
- Papp B→A at 2 h [11]: 5.7 ×10⁻⁶ cm/s
- IC50 [16]: 4.2 nM

SMILES: CC(C)C[C@@H](N)c1cc(C#N)c2cc(-c3cnco3)ccc2n1
- IC50 [16]: 22 nM

SMILES: CCOc1nc(C(N)CC(C)C)nc2ccc(-c3cnco3)cc12 (centres undefined)
- IC50 [16]: 340 nM

SMILES: CC(C)C[C@@H](N)C(=O)Nc1ccc(-c2cnco2)c(OC(F)F)c1
- Papp [8]: 91.8 ×10⁻⁶ cm/s
- Papp [9]: 96.7 ×10⁻⁶ cm/s
- permeability ([11]; caco-2, 2 h): 11.3 10^-6 cm/s
- concentration [23]: 41 µM
- concentration [24]: 27 µM
- Kp [25]: 0.7
- Kp uu [26]: 0.5

SMILES: CCNc1nc(C(N)CC(C)C)nc2ccc(-c3cnco3)cc12 (centres undefined)
- IC50 [16]: 1100 nM

SMILES: CCc1nc([C@@H](N)CC(C)C)nc2cc(OC)c(-c3cnco3)cc12
- remaining at 10 min, 0.5 µM [1]: 43%
- remaining at 10 min, 0.5 µM [2]: 83%
- IC50 [3]: 34 nM
- remaining at 10 min, 0.5 µM [4]: 47%
- fraction unbound at 5 h, 10 µM [5]: 0.17
- fraction unbound at 5 h, 10 µM [6]: 0.077
- fraction unbound at 5 h, 10 µM [7]: 0.1
- Papp [8]: 78.5 ×10⁻⁶ cm/s
- Papp [9]: 80.3 ×10⁻⁶ cm/s
- Papp A→B at 2 h [10]: 13.4 ×10⁻⁶ cm/s
- Papp B→A at 2 h [11]: 14.2 ×10⁻⁶ cm/s
- IC50 [16]: 12 nM
